The target in one data set is cannabinoid CB2 receptor (Homo sapiens, UniProt P34972). The note with it: cited from earlier work.
Data set [1] deals with male Sprague-Dawley rats. As to the kind of experiment: Thermal paw withdrawal latency from radiant heat source (Hargreaves) after peri-sciatic injection. The format is in vivo, rat.
The subject of data set [2] is male Sprague-Dawley rats. The data set can be described thus: Motor function score after peri-sciatic injection. Format: in vivo, rat.
Data set [3] relates to TRPV1-HEK-293 cells. The note with it: 1% QX-314, 24 hour treatment; Stueber et al., Anesthesiology, 2016; cited from earlier work.
The target in the next data set is T1, TRPV1 channels (Homo sapiens, UniProt Q8NER1).
T1 construct: expressed in transfected cells
The data set can be described thus: Calcium imaging (Fura-2) in HEK-293 cells stably expressing hTRPV1. The format is cell-based. The note with it: hTRPV1-HEK-293; chloroprocaine 1-5 mM bath applied 120 s; capsaicin short (5 s) focal application.

In data set [4] the test system is TRPV1-HEK-293 cells. The data set can be described thus: Cell viability by double staining with PI and FITC annexin V. The format is cell-based. As for the experimental part: Similar treatment with 1 μg/μl capsaicin lead, after 24 hours, to death of more than 50% of cells. […] Representative of 5 experiments. FIG. 4B is a bar graph summarizing the number of dead TRPV1-HEK-293 cells without any treatment (white), treated with 2% chloroprocaine (grey) or 1 μg/μl capsaicin (black) at the indicated time points.

For data set [5] the following is noted: cited from earlier work.

Where two headings read alike, the source gives them in different places.

T1 sequence (Q8NER1 whole entry): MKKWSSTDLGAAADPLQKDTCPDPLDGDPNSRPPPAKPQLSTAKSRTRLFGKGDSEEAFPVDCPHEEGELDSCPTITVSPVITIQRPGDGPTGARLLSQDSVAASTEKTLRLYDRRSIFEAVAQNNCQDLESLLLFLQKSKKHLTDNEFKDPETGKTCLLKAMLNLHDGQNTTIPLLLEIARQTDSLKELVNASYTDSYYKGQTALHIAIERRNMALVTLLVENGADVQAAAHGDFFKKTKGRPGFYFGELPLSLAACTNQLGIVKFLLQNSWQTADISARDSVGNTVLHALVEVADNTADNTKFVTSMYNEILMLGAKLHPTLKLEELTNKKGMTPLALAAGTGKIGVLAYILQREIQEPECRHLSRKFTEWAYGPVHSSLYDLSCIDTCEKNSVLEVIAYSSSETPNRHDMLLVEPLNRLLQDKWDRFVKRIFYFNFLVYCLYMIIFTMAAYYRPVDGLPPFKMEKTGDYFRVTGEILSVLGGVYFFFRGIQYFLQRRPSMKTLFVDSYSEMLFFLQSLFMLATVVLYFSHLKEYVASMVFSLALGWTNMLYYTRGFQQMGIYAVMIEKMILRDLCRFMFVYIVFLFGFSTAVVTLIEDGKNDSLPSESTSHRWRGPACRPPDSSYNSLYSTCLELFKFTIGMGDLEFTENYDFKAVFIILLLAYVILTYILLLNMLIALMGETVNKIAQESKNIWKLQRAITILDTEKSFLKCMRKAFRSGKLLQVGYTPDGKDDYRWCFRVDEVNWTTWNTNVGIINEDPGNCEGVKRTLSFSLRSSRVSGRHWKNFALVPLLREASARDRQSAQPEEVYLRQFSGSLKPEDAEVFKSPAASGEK
Chain of cannabinoid CB2 receptor (P34972 whole entry): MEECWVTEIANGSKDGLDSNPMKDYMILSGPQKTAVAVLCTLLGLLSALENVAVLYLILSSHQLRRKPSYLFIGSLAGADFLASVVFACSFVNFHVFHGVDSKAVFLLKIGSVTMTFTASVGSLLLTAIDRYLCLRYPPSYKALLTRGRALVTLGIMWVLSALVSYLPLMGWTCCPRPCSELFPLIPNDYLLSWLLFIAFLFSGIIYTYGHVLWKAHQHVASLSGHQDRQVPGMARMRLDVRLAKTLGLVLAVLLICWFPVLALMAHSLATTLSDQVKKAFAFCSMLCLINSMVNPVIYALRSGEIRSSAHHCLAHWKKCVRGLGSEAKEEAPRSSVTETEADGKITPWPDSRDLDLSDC
Protocol for TRPV1 channels: To that end, we performed calcium imaging experiments on HEK-293 cells which stably express TRPV1 and TRPA1 using HEK-293t cells for control. The cells were cultured in standard DMEM with 10% FBS, 100 U/ml penicillin and 100 μg/ml streptomycin and 2 mM Glutamax. 5 μg/ml blasticidin and 0.35% Zeocin were added for stable expression of hTRPV1 and for induction tetracycline 0.1 μg/ml was added to the medium 16 to 24 hours prior to experiments. Cells were cultivated at 37° C. and 5% CO2 and prepared on Poly-D-Lysin coated coverslips and were loaded with Fura-2 AM (stock in DMSO), for 45-60 minutes in a bath solution composed of (in mM): 145 NaCl, 5 KCl, 2 CaCl2, 1 MgCl2, 10 Glucose, 10 HEPES. They were then rinsed for 45-60 minutes for de-esterification of intracellular AM esters. Intracellular [Ca^2+]i was measured fluoroimetrically as ratiometric excitation at 340 nm and 380 nm (ΔF340/380, emission collected at 510 nm) using an inverted microscope (Nikon Eclipse Ti), equipped with an Epi-Fl attachment; perfect focus system (Nikon, Japan) and Exi Aqua monochromator (QImaging). […] A PV-820 Pneumatic PicoPump (WPI) was used for short (5 s) focal applications of capsaicin. Immediately after the puff application, capsaicin was washed out by perfusing with external solution.

As to `C=C(C)[C@@H]1CCC(C)=C[C@H]1c1c(O)cc(CCCCC)cc1O` [CBD, 2-[(1R,6R)-6-isopropenyl-3-methylcyclohex-2-en-1-yl]-5-pentylbenzene-1,3-diol], the “affinity for CB2 receptor” value on cannabinoid CB2 receptor is on record as “very low affinity”. In addition, the “effect on pain behavior” value in the data set on male Sprague-Dawley rats [1] (Example 6, saline with 1% CBD) was “did not affect pain behavior”. In addition, the “effect on response to noxious stimuli and motor abilities” value with male Sprague-Dawley rats [2] (Example 6, 1% CBD alone) was “did not affect either response to noxious stimuli or motor abilities at all”.

With `CC[N+](CC)(CC)CC(=O)Nc1c(C)cccc1C` [QX-314], the cell death with TRPV1-HEK-293 cells [3] is on record as 55%.

On to `COc1cc(CNC(=O)CCCC/C=C/C(C)C)ccc1O` [capsaicin], for which the “change in intracellular calcium (Fura-2 fluorescence)” value at TRPV1 channels is “substantial increase in FURA-2 fluorescence”. Besides, the death of cells entry in the data set on TRPV1-HEK-293 cells [4] (1 μg/μl capsaicin, 24 hours) is on record as “more than 50%”.

Regarding `CCN(CC)CCOC(=O)c1ccc(N)cc1Cl` [chloroprocaine], at TRPV1 channels, the “change in intracellular calcium (Fura-2 fluorescence)” value was “does not induce calcium influx”. Further, in the data set with TRPV1-HEK-293 cells [4] (2% chloroprocaine, 24 hours treatment), the cell death result is on record as “does not cause cell death”. Further, the “differential block” value in the data set on male Sprague-Dawley rats [1] (0.5% chloroprocaine alone, same motor and pain block) was “no differential block”. Also, the “effect on response to noxious heat (PWL normalized to baseline)” value in the data set on male Sprague-Dawley rats [1] (Example 2, peri-sciatic, 0.5% chloroprocaine, 1 μg/μl capsaicin, 52° C.) is “does not affect the response to noxious heat”. In addition, the “duration of inhibition of response to noxious heat” value in the data set on male Sprague-Dawley rats [1] (Example 6, 0.5% chloroprocaine with vehicle for CBD) was “about 30 min”. The “duration of motor block” value is reported as 30 min with male Sprague-Dawley rats [2] (Example 2, peri-sciatic injection, 0.5% chloroprocaine alone) and 30 min with male Sprague-Dawley rats [2] (Example 6, peri-sciatic, 0.5% chloroprocaine with 1% CBD or with vehicle for CBD).

As for `CCCCNc1ccc(C(=O)OCCN(C)C)cc1` [tetracaine], the pKa (usually the pH at which an ionisable group is half protonated) in data set [5] is recorded as 8.2.

Source of the values: US20210283098A1, “Methods and Compositions for Treating Pain and Itch” (YISSUM RESEARCH DEVELOPMENT COMPANY OF THE HEBREW …, priority 2018, published 2021).
